# From ChEMBL document CHEMBL3046538, “Synthesis of simplified herboxidiene aromatic hybrids” (2000)
# What was measured:
# Assay type in all cases: functional
# [1] = tested on: Solanum; test: Herbicidal activity against Solanum assessed as control at 1 kg/hacter post-emergently
# [2] = tested on: Amaranthus spinosus; test: Herbicidal activity against Amaranthus spinosus assessed as control at 1 kg/hacter post-emergently
# [3] = Herbicidal activity against biennial weeds assessed as control at 1 kg/hacter post-emergently
# [4] = tested on: Abutilon; test: Herbicidal activity against Abutilon assessed as control at 1 kg/hacter post-emergently
structure (smiles),measurement,setting,value
COC(=O)C[C@H]1CC[C@H](C)[C@@H](/C(C)=C/C=C/[C@@H](C)C[C@@]2(C)O[C@@H]2[C@H](C)[C@@H](OC)[C@@H](C)O)O1 [HERBOXIDIENE METHYL ESTER],Efficacy,[1],100%
same,Efficacy,[2],100%
same,Efficacy,[3],100%
same,Efficacy,[4],100%
CCCC[C@H]1O[C@H]1CCOc1cccc([C@@H]2CCC[C@H](CC(=O)OC)O2)c1,Efficacy,[1],90%
same,Efficacy,[2],30%
same,Efficacy,[3],10%
same,Efficacy,[4],10%
